Laboratory results as given in ChEMBL document CHEMBL5614382, “Discovery of a new 1-(phenylsulfonyl)-1H-indole derivative targeting the EphA2 receptor with antiproliferative activity on U251 glioblastoma cell line” (Eur J Med Chem, 2024).
The source made the active and inactive calls. The rule behind the calls is not given here.

Assays:
[1] = system: LOUCY; assay: Antiproliferative activity against human LOUCY cells harbouring EPHA2 knockout assessed as reduction in cell viability at 1 to 10 uM measured after 72 hrs by Celltiter-glo ATP based assay; type: functional; settings: dose 1-10 µM
[2] = system: U-251; assay: Antiproliferative activity against human U-251 cells assessed as increase in cell death at 30 uM measured after 48 hrs by MTT assay; type: functional, cell-based
[3] = system: U-251; assay: Effect on EphA2 protein level in human U-251 cells in presence of ephrin-A1 at 30 uM incubated for 4 hrs by ELISA assay; type: functional, cell-based
[4] = target: Ephrin type-A receptor 2 (Homo sapiens) (UniProt P29317); assay: Antagonist activity at EphA2 in human U-251 cells assessed as inhibition of EphA2 phosphorylation at 10 to 30 uM preincubated for 20 mins followed by ephrin-A1-Fc addition and measured after 10 mins by ELISA assay; type: cell-based; settings: filed as antagonist, dose 10-30 µM, time 30.0 min
Ephrin type-A receptor 2 (Homo sapiens), sequence (P29317 whole entry): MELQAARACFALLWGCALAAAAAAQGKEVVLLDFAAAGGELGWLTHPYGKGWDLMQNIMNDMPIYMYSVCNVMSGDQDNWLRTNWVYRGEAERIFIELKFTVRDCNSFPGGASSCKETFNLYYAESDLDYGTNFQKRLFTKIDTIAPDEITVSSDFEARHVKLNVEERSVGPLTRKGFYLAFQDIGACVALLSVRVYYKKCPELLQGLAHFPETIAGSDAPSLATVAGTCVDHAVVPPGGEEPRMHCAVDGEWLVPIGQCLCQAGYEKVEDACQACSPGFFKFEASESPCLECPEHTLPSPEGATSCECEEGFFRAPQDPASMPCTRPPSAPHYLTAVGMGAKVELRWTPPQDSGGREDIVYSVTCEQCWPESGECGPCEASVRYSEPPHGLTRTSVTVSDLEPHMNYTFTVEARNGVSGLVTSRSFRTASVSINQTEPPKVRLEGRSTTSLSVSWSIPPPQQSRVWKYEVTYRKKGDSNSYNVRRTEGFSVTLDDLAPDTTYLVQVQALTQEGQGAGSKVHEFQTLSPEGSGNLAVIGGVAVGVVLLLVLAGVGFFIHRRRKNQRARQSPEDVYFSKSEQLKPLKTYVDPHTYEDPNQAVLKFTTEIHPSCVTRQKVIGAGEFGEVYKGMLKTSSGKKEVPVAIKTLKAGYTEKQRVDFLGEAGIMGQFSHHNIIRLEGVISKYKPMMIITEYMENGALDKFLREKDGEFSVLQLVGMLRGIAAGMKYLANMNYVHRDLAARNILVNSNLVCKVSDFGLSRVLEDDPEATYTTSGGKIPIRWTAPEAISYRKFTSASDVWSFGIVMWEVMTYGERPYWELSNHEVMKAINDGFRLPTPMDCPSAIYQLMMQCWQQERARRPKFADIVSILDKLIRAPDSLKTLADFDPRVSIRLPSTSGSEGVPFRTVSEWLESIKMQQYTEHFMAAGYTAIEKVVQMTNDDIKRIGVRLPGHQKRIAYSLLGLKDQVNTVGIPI

[5] = system: U-251; assay: Antiproliferative activity against human U-251 cells assessed as reduction in cell viability at 30 uM measured after 72 hrs by Celltiter-glo ATP based assay; type: functional

- Activity [4]: Active
SMILES: C[C@H](CCC(=O)N[C@H](CC(=O)O)Cc1cn(S(=O)(=O)c2ccc(C(F)(F)F)cc2)c2ccccc12)[C@H]1CC[C@H]2[C@@H]3CC=C4C[C@@H](O)CC[C@]4(C)[C@H]3CC[C@]12C
- Activity [1]: inactive
- Activity [2]: Active
- Activity [3]: inactive
- Activity [5]: Active
